Data reported in patent publication US9227935B2, “Piperidine/piperazine derivatives” (Janssen Pharmaceutica N.V., priority 2007, dated 2016).

What was measured:
[1] = target: T1, human DGAT1 (Homo sapiens, UniProt O75907); experiment: DGAT1 FlashPlate inhibition assay with DGAT1 membrane preparations; format: biochemical; conditions: IC50 values expressed in M; pIC50 = -logIC50; inhibition of DGAT1 activity
T1 construct: FLAG (N); made in house; host or cells: SF9 insect cells (baculovirus, pFastBac); total cell membranes used as the enzyme source
T1 sequence (O75907 1-488): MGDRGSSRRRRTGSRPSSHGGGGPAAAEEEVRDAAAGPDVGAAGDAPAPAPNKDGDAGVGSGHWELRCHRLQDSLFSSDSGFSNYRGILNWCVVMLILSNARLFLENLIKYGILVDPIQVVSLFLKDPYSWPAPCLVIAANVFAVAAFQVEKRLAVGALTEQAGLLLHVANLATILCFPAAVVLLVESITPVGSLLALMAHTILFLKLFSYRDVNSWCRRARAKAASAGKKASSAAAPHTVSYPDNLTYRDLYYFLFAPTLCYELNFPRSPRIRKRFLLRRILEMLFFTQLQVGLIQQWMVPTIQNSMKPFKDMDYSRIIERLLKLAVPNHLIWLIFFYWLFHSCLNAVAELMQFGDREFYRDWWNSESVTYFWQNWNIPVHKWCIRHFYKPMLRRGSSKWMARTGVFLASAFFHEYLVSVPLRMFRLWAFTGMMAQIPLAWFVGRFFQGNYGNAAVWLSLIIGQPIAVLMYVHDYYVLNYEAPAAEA
Outline: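 Membranes from Sf9 cells expressing N-FLAG human DGAT1 were incubated 120 min at 37 °C with 50 μM DAG in PC/PS micelles and 8.4 μM [3H]-oleoylCoA in Tris pH 7.4, MgCl2, EDTA and 0.2% BSA. The reaction was stopped with N-ethylmaleimide, and triacylglycerol was read by FlashPlate radioluminescence and normalised to enzyme and no-enzyme controls.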

| SMILES | IC50 [1] | melting point |
| --- | --- | --- |
| O=C(Nc1cccc(N2CCCC2)c1)c1ccc(N2CCN(C(=O)Nc3c(Cl)cc(CCN4CCCC4)cc3Cl)CC2)cc1 [Compound 129] | 0.00537 µM |  |
| O=C(Nc1cccc(N2CCCC2)c1)c1ccc(N2CCN(C(=O)Nc3c(Cl)cc(CN4CCCC4)cc3Cl)CC2)cc1 [Compound 130] | 0.00724 µM |  |
| O=C(Nc1cccc(N2CCCC2)c1)c1ccc(N2CCN(C(=O)Cc3c(Cl)cccc3Cl)CC2)cc1 [Compound 131] | 0.0309 µM |  |
| CN1CCN(C(=O)Cc2cc(Cl)c(NC(=O)N3CCN(c4ccc(NC(=O)c5cccc(N6CCCC6)c5)cc4)CC3)c(Cl)c2)CC1 [Compound 136] | 0.00182 µM | 254.77 °C |
| CC(C)N(Cc1cc(Cl)c(NC(=O)N2CCN(c3ccc(NC(=O)c4cccc(N5CCCC5)c4)cc3)CC2)c(Cl)c1)C(C)C [Compound 137] | 0.00417 µM | 270.85 °C |
| COC(=O)c1cccc(C(=O)Nc2ccc(N3CCN(C(=O)Nc4c(Cl)cc(CN5CCCC5)cc4Cl)CC3)cc2)c1 [Compound 140] | 0.0126 µM | 247.52 °C |
| O=C(O)Cc1cccc(C(=O)Nc2ccc(N3CCN(C(=O)Nc4c(Cl)cc(CN5CCCCC5)cc4Cl)CC3)cc2)c1 [Compound 143] | 3.31 µM |  |
| COC(=O)c1cccc(C(=O)Nc2ccc(N3CCN(C(=O)Cc4c(Cl)cc(CN5CCCC5)cc4Cl)CC3)cc2)c1 [Compound 145] | 0.112 µM |  |
| O=C(O)c1cccc(C(=O)Nc2ccc(N3CCN(C(=O)Cc4c(Cl)cc(CN5CCCC5)cc4Cl)CC3)cc2)c1 [Compound 146] | 3.39 µM |  |

Further compounds by falling IC50 [1], results first:

| IC50 [1] | melting point | SMILES |
| --- | --- | --- |
| 0.214 µM | 224.5 °C | O=C(Nc1ccc(N2CCN(C(=S)Nc3c(Cl)cccc3Cl)CC2)cc1)c1ccccc1-c1ccc(C(F)(F)F)cc1 [Compound 8] |
| 0.0302 µM | 289 °C | O=C(Nc1ccc(N2CCN(C(=O)Nc3c(Cl)cccc3Cl)CC2)cc1)c1ccccc1-c1ccc(C(F)(F)F)cc1 [Compound 9] |
| 0.0115 µM |  | CCOC(=O)Cc1cccc(C(=O)Nc2ccc(N3CCN(C(=O)Nc4c(Cl)cc(CN5CCCCC5)cc4Cl)CC3)cc2)c1 [Compound 138] |
| 0.00646 µM | 212.69 °C | O=C(Nc1ccc(N2CCN(C(=O)Oc3c(Cl)cccc3Cl)CC2)cc1)c1cccc(N2CCCC2)c1 [Compound 139] |
